Assay results as given in patent US8680282B2, “Cyclic inhibitors of carnitine palmitoyltransferase and treating cancer” (University Health Network, priority 2007, dated 2014).

Experiments:
Assay in all cases: Cancer cell growth inhibition, SRB assay
[1] = system: MCF-7; assay type: cell-based, human; set-up: Percentage of Growth Inhibition: scale not given here; conditions: SRB at Day 6; for GI50: Homo sapiens, MCF7, 144 h, MCF-7 (Breast), triplicate
Protocol: (§1) Human cancer cells (MCF-7, H358, H460, HCT116 p53^+/+, HCT116 p53^−/−, A172, PC-3, DU-145 and SW626) were maintained in DMEM medium containing 10% Fetal Bovine Serum (FBS) (Invitrogen, Burlington, ON, Canada) and normal cells HMEC, 184A1, NHBE and PrEC were cultured in MEGM, MEGM plus transferring and cholera toxin, BEGM and PrEGM supplemented with various growth factors (Cambrex, Charles city, Iowa, USA), respectively.
(§2) Compounds of Examples S1 to S30, and 4-(carboxymethyl)-4-(6-(3-hexyloxy)phenoxy)hexanoamido)-1,1-dimethylpiperidinium 2,2,2-trifluoroactate (“Compound A”) were tested in this example. Each of the tested compounds was dissolved in DMSO and further diluted in cell culture medium for the experiments performed. Cells were seeded into 96-well plates with 1,500-5,000 cells/well according to cell growth rate. After 24 h, DMEM medium containing 10% FBS were changed to DMEM containing 3% FBS for cancer cells. The compound was added into the cell culture at the indicated concentrations, and the final concentration of DMSO was adjusted to a final concentration of 0.1%. Cell viability was assessed by Sulforhodamine B (SRB) assay at Day 6.
(§3) Sulforhodamine B (SRB) (Sigma, Oakville, ON, Canada) is a water-soluble dye that binds to the basic amino acids of the cellular proteins. Thus, colorimetric measurement of the bound dye provides an estimate of the total protein mass that is related to the cell number. The cells were fixed in situ by gently aspirating off the culture media and adding 50 ul of cold 10% Tri-chloroacetic Acid (TCA) per well and incubated at 4° C. for 30-60 min. The plates were washed five times with water and allowed to air dry for 5 min. 50 ul of 0.4% (w/v) SRB dissolved in 1% (v/v) acetic acid were added into each well, plates were then incubated at RT for 30 min for staining, washed four times with 1% acetic acid to remove any unbound dye and then allowed to air dry for 5 min. Stain was solubilized with 100 ul of 10 mM Tris pH 10.5 per well. Absorbance was read at 570 nm on a spectrophotometer. GI50 (compound concentration required for 50% of growth inhibition) was calculated using GraphPad Prism 4.0 software (GraphPad Software, Inc., San Diego, Calif., USA). Growth inhibition (%) was determined as percentage of cells remaining compared to the DMSO-treated cells as control.

[2] = system: SW626; assay type: cell-based, human; set-up: Percentage of Growth Inhibition: scale not given here; conditions: Homo sapiens, 144 h; SW626 (Ovarian); SRB at Day 6; triplicate
Protocol: as §1, §2, §3

[3] = system: SW620; assay type: cell-based, human; conditions: Homo sapiens, SW-620, 144 h; SW620 (Colon); SRB at Day 6; triplicate
[4] = system: Hs578T; assay type: cell-based; conditions: Homo sapiens, Hs-578T, 144 h; Hs578T (Breast); SRB at Day 6; triplicate
[5] = system: SW480; assay type: cell-based, human; conditions: Homo sapiens, 144 h; SW480 (Colon); SRB at Day 6; triplicate
[6] = system: COLO-205; assay type: cell-based, human; conditions: Homo sapiens, 144 h; COLO-205 (Colon); SRB at Day 6; triplicate
[7] = system: A549; assay type: cell-based, human; set-up: Percentage of Growth Inhibition: scale not given here; conditions: SRB at Day 6; for GI50: Homo sapiens, 144 h, A549 (Lung), triplicate
[8] = system: PC-3; assay type: cell-based, human; conditions: SRB at Day 6; for GI50: Homo sapiens, 144 h, PC-3 (Prostate), triplicate
Protocol: as §1, §2, §3

[9] = system: A172; assay type: cell-based, human; conditions: Homo sapiens, A 172, 144 h; A172 (Brain); SRB at Day 6; triplicate
Protocol: as §1, §2, §3

[10] = system: H460; assay type: cell-based, human; conditions: SRB at Day 6; for GI50: Homo sapiens, NCI-H460, 144 h, H460 (Lung), triplicate
Protocol: as §1, §2, §3

[11] = system: H358; assay type: cell-based, human; set-up: Percentage of Growth Inhibition: unit not given here; conditions: SRB at Day 6; for GI50: Homo sapiens, NCI-H358, 144 h, H358 (Lung), triplicate
Protocol: as §1, §2, §3

[12] = system: TOV-21G; assay type: cell-based; conditions: Homo sapiens, TOV21G, 144 h; SRB at Day 6; triplicate
[13] = system: Caov-3; assay type: cell-based; conditions: Homo sapiens, 144 h; Caov-3 (Ovarian); SRB at Day 6; triplicate
[14] = system: MDA-231; assay type: cell-based, human; conditions: SRB at Day 6; for GI50: Homo sapiens, MDA-MB-231, 144 h, MDA-231 (Breast), triplicate
[15] = system: HCT-8; assay type: cell-based, human; conditions: at 10 μM, SRB at Day 6

Compound	GI50 [1] [µM]	GI50 [2] [µM]	GI50 [3] [µM]	GI50 [4] [µM]	GI50 [5] [µM]	GI50 [6] [µM]	GI50 [7] [µM]	GI50 [8] [µM]	GI50 [9] [µM]	GI50 [11] [µM]	GI50 [13] [µM]	other results
CCCCCCCCc1ccc(NC(=O)NC2(CC(=O)O)CC[N+](C)(C)CC2)cc1 [Example S2, 4-(Carboxymethyl)-1,1-dimethyl-4-(3-(4-octylphenyl)ureido)piperidinium 2,2,2-trifluoroacetate]	10	2.5	2	50	0.7	1.3	99	8.2	1.8	3.1	–	GI50 [10]: 1.8 µM
CCCCCc1ccc(S(=O)(=O)NC2(CC(=O)O)CC[N+](C)(C)CC2)cc1 [Example S4, 4-(Carboxymethyl)-1,1-dimethyl-4-(4-pentylphenylsulfonamido)piperidinium 2,2,2-trifluoroacetate]	–	–	> 50	–	> 50	> 50	–	> 50	> 50	–	–	GI50 [12]: 44 µM
CCCCCCCCc1ccc(NS(=O)(=O)NC2(CC(=O)O)CCCN(C)C2)cc1 (stereo not shown) [Example S15, 3-(carboxymethyl)-1-methyl-3-(N-(4-octylphenyl)sulfamoylamino)-piperidinium 2,2,2-trifluoroacetate]	15	33	27	25	36	21	7.5	2.8	2.7	12	4	–
CCCCCCCCc1ccc(NS(=O)(=O)NC2(CC(=O)O)CCC[N+](C)(C)C2)cc1 (stereo not shown) [Example S16, 3-(carboxymethyl)-1,1-dimethyl-3-(N-(4-octylphenyl)sulfamoylamino)-piperidinium 2,2,2-trifluoroacetate]	3.9	18	20	17	4	10	6.2	2.1	1.1	1.4	2.5	GI50 [14]: 0.5 µM
CCCCCCCCc1ccc(NC(=O)NC2(CC(=O)O)CC[N+](C)(C)C2)cc1 (stereo not shown) [Example S18, 3-(carboxymethyl)-1,1-dimethyl-3-(3-(4-octylphenyl)ureido)-pyrrolidinium 2,2,2-trifluoroacetate]	5.9	3.9	3.1	26	1.2	1.9	38	6.6	1.9	2.7	–	GI50 [10]: 2.2 µM
CCCCCCCCc1ccc(NC(=O)NC2(CC(=O)O)CNC2)cc1 [Example S23, 3-(carboxymethyl)-3-(3-(4-octylphenyl)ureido)azetidinium 2,2,2-trifluoroacetate]	26	21	43	45	28	35	> 50	24	7.2	14	17	–
CCCCCCCCc1ccc(NC(=O)NC2(CC(=O)O)C[N+](C)(C)C2)cc1 [Example S24, 3-(Carboxymethyl)-1,1-dimethyl-3-(3-(4-octylphenyl)ureido)azetidinium 2,2,2-trifluoroacetate]	27	63	44	46	29	28	36	21	41	19	45	–
CCCCCc1ccc(S(=O)(=O)NC2(CC(=O)O)CN(C)C2)cc1 [Example S27, 3-(carboxymethyl)-1-methyl-3-(4-pentylphenylsulfonamido)azetidinium 2,2,2-trifluoroacetate]	–	–	–	–	–	–	–	–	–	–	–	Percentage of Growth Inhibition ([1]; MCF-7, at 10 μM, NE = no activity at 10 micromolar): 0.05347%; Percentage of Growth Inhibition [15]: 0.09153%; Percentage of Growth Inhibition ([7]; A549, at 10 μM, NE = no activity at 10 micromolar): 0.06854%; Percentage of Growth Inhibition ([8]; PC-3, at 10 μM, NE = no activity at 10 micromolar): 0.0865%; Percentage of Growth Inhibition ([10]; H460, at 10 μM, NE = no activity at 10 micromolar): 0.00556%; Percentage of Growth Inhibition ([11]; H358, at 10 μM, NE = no activity at 10 micromolar): 0.07312; Percentage of Growth Inhibition ([14]; MDA-231, at 10 μM, NE = no activity at 10 micromolar): 0.1338%
CCCCCc1ccc(S(=O)(=O)NC2(CC(=O)O)C[N+](C)(C)C2)cc1 [Example S29, 3-(carboxymethyl)-1,1-dimethyl-3-(4-pentylphenylsulfonamido)-azetidinium 2,2,2-trifluoroacetate]	44	> 50	> 77	> 50	> 50	28	> 50	> 50	> 50	86	–	GI50 [14]: > 50 µM
